The text below walks through data of ChEMBL document CHEMBL3632478, “Design, synthesis and biological evaluation of imidazopyridine/imidazopyrimidine-benzimidazole conjugates as potential anticancer agents” (Medchemcomm, 2015).

Test [1] has as its system A549. Put plainly: Antiproliferative activity against human A549 cells after 48 hrs by MTT assay. Type of test: functional, cell-based. The following applies: A549, 48 h. In general terms: Tetrazolium dyes change colour on reduction, which living cells bring about.
For test [2], the system named is B16. As to the kind of experiment: Antiproliferative activity against mouse B16 cells after 48 hrs by MTT assay. Format: functional, cell-based. The following applies: B16, 48 h.
Test [3] relates to HeLa. As to the kind of experiment: Antiproliferative activity against human HeLa cells after 48 hrs by MTT assay. Format: functional, cell-based.
The subject of test [4] is DU-145. Put plainly: Antiproliferative activity against human DU145 cells after 48 hrs by MTT assay. Format: functional, cell-based. The following applies: DU-145, 48 h.
For test [5], the system named is A549. Put plainly: Cell cycle arrest in human A549 cells assessed as accumulation at sub G1 phase at 1 uM after 48 hrs by propidium iodide based flow cytometry (reference value: 0.65%). Format: functional. (Flow cytometry measures light scatter and fluorescence of single cells or particles in a stream.)
Test [6] relates to A549. Put plainly: Induction of apoptosis in human A549 cells assessed as apoptotic bodies at 1 uM after 48 hrs by Hoechst 33342 based fluorescent microscopic analysis. Type of test: functional, cell-based.
Test [7] has as its system A549. Put plainly: Induction of apoptosis in human A549 cells assessed as early apoptotic cells at 2 uM after 48 hrs by annexin V-FITC and propidium iodide double staining based flow cytometric analysis (reference value: 0%). Type of test: functional.
The subject of test [8] is A549. As to the kind of experiment: Induction of apoptosis in human A549 cells assessed as […] condensation at 1 uM after 48 hrs by Hoechst 33342 based fluorescent microscopic analysis. Format: functional, cell-based.
Test [9] concerns the target Tubulin (Sus scrofa, UniProt P02554+P02550). As to the kind of experiment: Inhibition of porcine brain tubulin polymerization after 1 hr by fluorescence assay.
For test [10], the system named is A549. Put plainly: Induction of apoptosis in human A549 cells assessed as early apoptotic cells at 1 uM after 48 hrs by annexin V-FITC and propidium iodide double staining based flow cytometric analysis (reference value: 0%). Type of test: functional.
The subject of test [11] is A549. Put plainly: Cell cycle arrest in human A549 cells assessed as accumulation at sub G1 phase at 2 uM after 48 hrs by propidium iodide based flow cytometry (reference value: 0.65%). Format: functional.
Test [12] relates to A549. As to the kind of experiment: Induction of apoptosis in human A549 cells assessed as viable cells at 1 uM after 48 hrs by annexin V-FITC and propidium iodide double staining based flow cytometric analysis (reference value: 99.79%). Format: functional. The following applies: A549, 48 h, read-out: Activity.
The subject of test [13] is A549. As to the kind of experiment: Cell cycle arrest in human A549 cells assessed as accumulation at G2/M phase at 2 uM after 48 hrs by propidium iodide based flow cytometry (reference value: 10.39%). Format: functional.
Test [14] relates to A549. As to the kind of experiment: Induction of apoptosis in human A549 cells assessed as viable cells at 2 uM after 48 hrs by annexin V-FITC and propidium iodide double staining based flow cytometric analysis (reference value: 99.79%). The following applies: A549, 48 h, read-out: Activity. Type of test: functional.
Test [15] has as its system A549. As to the kind of experiment: Cell cycle arrest in human A549 cells assessed as accumulation at G2/M phase at 1 uM after 48 hrs by propidium iodide based flow cytometry (reference value: 10.39%). Type of test: functional.
Test [16] deals with A549. Put plainly: Inhibition of microtubule organization in human A549 cells at 1 uM after 48 hrs by immunofluorescence microscopic analysis. Format: cell-based.
The target in test [17] is Tubulin (Sus scrofa) (UniProt P02554+P02550). Put plainly: Inhibition of porcine brain tubulin polymerization at 3 uM after 1 hr by fluorescence assay.
Tubulin (Sus scrofa), sequence (P02550 whole entry, looked up): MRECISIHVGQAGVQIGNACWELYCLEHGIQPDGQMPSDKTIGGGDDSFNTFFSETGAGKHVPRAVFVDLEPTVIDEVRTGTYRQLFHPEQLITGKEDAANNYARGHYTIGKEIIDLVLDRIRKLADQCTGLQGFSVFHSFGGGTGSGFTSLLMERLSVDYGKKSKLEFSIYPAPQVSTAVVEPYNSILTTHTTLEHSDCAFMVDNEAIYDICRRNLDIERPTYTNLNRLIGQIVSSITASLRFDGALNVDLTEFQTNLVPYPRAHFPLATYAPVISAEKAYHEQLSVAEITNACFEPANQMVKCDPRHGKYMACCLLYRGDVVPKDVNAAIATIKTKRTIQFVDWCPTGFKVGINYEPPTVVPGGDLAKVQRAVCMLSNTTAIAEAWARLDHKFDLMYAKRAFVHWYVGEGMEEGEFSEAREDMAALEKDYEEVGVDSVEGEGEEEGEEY
Tubulin (Sus scrofa), sequence (P02554 whole entry, looked up): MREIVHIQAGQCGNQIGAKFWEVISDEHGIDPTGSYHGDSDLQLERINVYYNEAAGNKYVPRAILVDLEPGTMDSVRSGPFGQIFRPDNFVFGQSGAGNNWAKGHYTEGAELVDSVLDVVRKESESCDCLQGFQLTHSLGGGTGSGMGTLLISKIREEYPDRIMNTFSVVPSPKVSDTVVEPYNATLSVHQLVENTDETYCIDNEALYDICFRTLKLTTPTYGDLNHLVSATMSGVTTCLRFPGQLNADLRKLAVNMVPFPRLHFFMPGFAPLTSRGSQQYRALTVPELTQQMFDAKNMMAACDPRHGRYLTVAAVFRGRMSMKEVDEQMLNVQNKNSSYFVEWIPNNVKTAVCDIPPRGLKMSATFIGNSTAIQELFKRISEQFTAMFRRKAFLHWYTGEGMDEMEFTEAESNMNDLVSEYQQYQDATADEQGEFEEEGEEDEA
Test [18] relates to A549. As to the kind of experiment: Induction of apoptosis in human A549 cells assessed as late apoptotic cells at 2 uM after 48 hrs by annexin V-FITC and propidium iodide double staining based flow cytometric analysis (reference value: 0.14%). Format: functional.
The subject of test [19] is A549. As to the kind of experiment: Cell cycle arrest in human A549 cells assessed as accumulation at G0/G1 phase at 1 uM after 48 hrs by propidium iodide based flow cytometry (reference value: 85.63%). Format: functional.
Test [20] deals with A549. Put plainly: Induction of apoptosis in human A549 cells assessed as caspase-3 activation at 2 uM after 48 hrs by Ac-DEVD substrate based fluorescence assay relative to control. Type of test: functional.
Test [21] relates to A549. Put plainly: Cell cycle arrest in human A549 cells assessed as accumulation at S phase at 2 uM after 48 hrs by propidium iodide based flow cytometry (reference value: 3.59%). Format: functional.
The subject of test [22] is A549. As to the kind of experiment: Induction of apoptosis in human A549 cells assessed as dead cells at 1 uM after 48 hrs by annexin V-FITC and propidium iodide double staining based flow cytometric analysis (Rvb =0.07%). Type of test: functional.
Test [23] has as its system A549. Put plainly: Induction of apoptosis in human A549 cells assessed as DNA fragmentation at 1 uM after 48 hrs by ethidium bromide based agarose gel electrophoresis. Format: functional, cell-based.
In test [24] the test system is A549. As to the kind of experiment: Induction of apoptosis in human A549 cells assessed as caspase-3 activation at 1 uM after 48 hrs by Ac-DEVD substrate based fluorescence assay relative to control. Type of test: functional.
Test [25] concerns A549. Put plainly: Cell cycle arrest in human A549 cells assessed as accumulation at G0/G1 phase at 2 uM after 48 hrs by propidium iodide based flow cytometry (reference value: 85.63%). Format: functional.
Test [26] relates to A549. As to the kind of experiment: Induction of apoptosis in human A549 cells assessed as late apoptotic cells at 1 uM after 48 hrs by annexin V-FITC and propidium iodide double staining based flow cytometric analysis (reference value: 0.14%). Format: functional.
Test [27] relates to A549. Put plainly: Cell cycle arrest in human A549 cells assessed as accumulation at S phase at 1 uM after 48 hrs by propidium iodide based flow cytometry (reference value: 3.59%). Type of test: functional.
Test [28] deals with A549. Put plainly: Induction of apoptosis in human A549 cells assessed as nuclear fragmentation at 1 uM after 48 hrs by Hoechst 33342 based fluorescent microscopic analysis. Format: functional, cell-based.
Test [29] has as its system A549. Put plainly: Induction of apoptosis in human A549 cells assessed as dead cells at 2 uM after 48 hrs by annexin V-FITC and propidium iodide double staining based flow cytometric analysis (Rvb =0.07%). Format: functional.

Calls of active or inactive are those of the source. No cut-off for these calls is given here. A value given as a limit tells only on which side of the number the result lay.

Consider `Clc1ccc2nc(-c3c(-c4ccccc4)nc4ncccn34)[nH]c2c1`, for which the IC50 in [1], in test [2], in test [3] and in test [4] was over 30 µM throughout.
Consider `c1ccc(-c2nc3ncccn3c2-c2nc3ccccc3[nH]2)cc1`, for which the Activity was 1.28% in test [5]; 10.25% in test [7]; 5.08% in [10]; 2.7% in test [11]; 33.8% in [13]; 12.6% in test [15]. The Activity amounted to 1.2% in [18]; 83.5% in test [19]; 2.88% in test [21]; 0.35% in [22]; 64.8% in [25]; 2.69% in test [26]. The Activity in test [27] is reported as 3.71%; in [29], 0.18%. For the same molecule, the result in test [6], in test [8], in [23] and in [28] was Active. In addition, the half-maximal inhibitory concentration (IC50) (as a rule, the concentration that gives 50% inhibition) in test [1] is 1.92 µM; in test [2], 10.5 µM; in [9], 2.26 µM; in test [3] it was 2.25 µM; in test [4] it was 2.34 µM. In test [12], the viability at 1 µM is 91.9%. In addition, in test [14], the viability at 2 µM turned out to be 88.4%. Also, the inhibition (in general, how much of the control response was suppressed) in test [16] was “Active”. This molecule also yielded an inhibition in [17] of 60.5%. Moreover, the “fold change (FC)” value in test [20] and in [24] was 2 each time.
With `COc1ccc(-c2nc3ncccn3c2-c2nc3ccc(Cl)cc3[nH]2)cc1`, the half-maximal inhibitory concentration (IC50) in test [1] came to 10.2 µM; in [2], 26.8 µM; in test [3] it was 14 µM; in test [4], 19.9 µM.
For `COc1ccc2nc(-c3c(-c4ccc(F)cc4)nc4ncccn34)[nH]c2c1`, in that order: 18.6 µM, over 30 µM, 19.9 µM and 16 µM.
For `COc1ccc(-c2nc3ccccn3c2-c2nc3ccc(C)cc3[nH]2)cc1`, in that order: over 30 µM, over 30 µM, 26.4 µM and over 30 µM.
As for `Fc1ccc(-c2nc3ncccn3c2-c2nc3ccc(F)cc3[nH]2)cc1`, the IC50 was determined as 19.2 µM in test [1], 15.6 µM in test [2], 15.3 µM in [3] and 14.4 µM in [4].
For `Cc1ccc2nc(-c3c(-c4ccccc4)nc4ncccn34)[nH]c2c1`, the IC50 turned out to be 2.19 µM in [1], 8.91 µM in test [2], 7.58 µM in [3] and 2.34 µM in test [4].
The corresponding values for `Fc1ccc(-c2nc3ncccn3c2-c2nc3ccccc3[nH]2)cc1` are 11 µM, 16.6 µM, 8.19 µM and 7.78 µM.
The corresponding values for `COc1ccc(-c2nc3ccccn3c2-c2nc3ccc(OC)cc3[nH]2)cc1` are over 30 µM, over 30 µM, over 30 µM and over 30 µM.
The corresponding values for `COc1ccc(-c2nc3ncccn3c2-c2nc3ccc(OC)cc3[nH]2)cc1` are 6.91 µM, 19.9 µM, 15.8 µM and 5.62 µM.
Regarding `COc1ccc(-c2nc3ccccn3c2-c2nc3ccc(Cl)cc3[nH]2)cc1`, the IC50 in [1] worked out at 19.4 µM; in test [2], 16 µM; in test [3], 14.5 µM; in test [4], 19.5 µM.
The corresponding values for `COc1ccc(-c2nc3ccccn3c2-c2nc3ccc(F)cc3[nH]2)cc1` are 14.6 µM, 14.8 µM, 17.6 µM and 15.9 µM.
In the case of `COc1ccc(-c2nc3ncccn3c2-c2nc3ccccc3[nH]2)cc1`, the IC50 in test [1] came to 10.5 µM; in test [2] it was 16.7 µM; in test [3] it was 9.06 µM; in test [4], 13.2 µM.
For `Fc1ccc2nc(-c3c(-c4ccccc4)nc4ncccn34)[nH]c2c1`, in that order: 8.51 µM, 17 µM, 6.91 µM and 4.89 µM.
The corresponding values for `COc1ccc(-c2nc3ncccn3c2-c2nc3ccc(F)cc3[nH]2)cc1` are 15.1 µM, 19.4 µM, 17 µM and 13.8 µM.
For the molecule `Fc1ccc(-c2nc3ncccn3c2-c2nc3ccc(Cl)cc3[nH]2)cc1`, the 50% inhibitory concentration (IC50) in test [1] is 19.7 µM; in test [2], over 30 µM; in [3], 20.3 µM; in [4] it was 12.6 µM.
Turning to `COc1ccc2nc(-c3c(-c4ccccc4)nc4ncccn34)[nH]c2c1`, the IC50 in test [1] worked out at 2.12 µM; in [2], 10.2 µM; in test [3], 9.33 µM; in test [4] it was 3.71 µM.
For `Cc1ccc2nc(-c3c(-c4ccc(F)cc4)nc4ncccn34)[nH]c2c1`, in that order: over 30 µM, 15.1 µM, 12.9 µM and 10.2 µM.
The corresponding values for `COc1ccc(-c2nc3ccccn3c2-c2nc3ccccc3[nH]2)cc1` are 23.2 µM, over 30 µM, 20.4 µM and 24 µM.
For `COC(=O)Nc1nc2cc(C(=O)c3cccs3)ccc2[nH]1` [NOCODAZOLE], the Activity in [5] turned out to be 9.23%; in [10], 11.71%; in test [15], 24.28%; in [19], 63.76%; in [22] it was 0.04%; in test [26], 1.29%. Besides, the Activity in test [27] worked out at 0.69%. Further, the half-inhibitory concentration (IC50) came out at 1.62 µM in test [1], 0.69 µM in [2], 2.23 µM in test [3] and 0.25 µM in test [4]. In addition, the viability at 1 µM in test [12] was 87%. Moreover, in test [17], the inhibition was 66.9%.
In the case of `COc1ccc(-c2nc3ncccn3c2-c2nc3ccc(C)cc3[nH]2)cc1`, the Activity came out at 0.76% in test [5]; 13.49% in [7]; 8.18% in test [10]; 2.19% in test [11]; 29% in test [13]; 11.7% in test [15]. Moreover, the Activity is 1.3% in test [18]; 82.68% in [19]; 3.63% in test [21]; 0.22% in test [22]; 59.33% in test [25]; 1.43% in [26]. For the same molecule, the Activity in test [27] is 3.65%; in test [29], 0.07%. The result in test [6], in [8], in test [23] and in test [28] was Active. Further, the IC50 amounted to 1.48 µM in [1]; 3.63 µM in test [2]; 2.06 µM in [9]; 2.57 µM in test [3]; 7.08 µM in [4]. The viability at 1 µM in test [12] was determined as 90.2%. Moreover, the viability at 2 µM in test [14] turned out to be 85.1%. Also, the inhibition result in test [16] is “Active”. The molecule also displayed an inhibition in [17] of 61.1%. Also, the “fold change (FC)” value in test [20] and in [24] was 2 each time.
